Assay results taken from patent US20240262795A1, “PYRAZINE COMPOUNDS AS INHIBITORS OF FLT3” (Biomea Fusion, Inc., priority 2021, published 2024).
Changes are numbered by the printed parent chain.

Key:
[1] = target: T1, Ba/F3 cell lines stably expressing human FLT3-ITD-F691L (Homo sapiens, UniProt P36888, F691L, cells depend on it, form not given); experiment: FLT3 mutant assay, cell viability, Ba/F3-FLT3-ITD-F691L; format: cell-based, mouse; conditions: IC50 (3 days), CellTiter-Glo; read-out: Ba/F3-FLT3-ITD-F691L Relative IC50
T1 construct: Ba/F3-FLT3-ITD-F691L Relative IC50
T1 sequence (P36888 1-993 F691L): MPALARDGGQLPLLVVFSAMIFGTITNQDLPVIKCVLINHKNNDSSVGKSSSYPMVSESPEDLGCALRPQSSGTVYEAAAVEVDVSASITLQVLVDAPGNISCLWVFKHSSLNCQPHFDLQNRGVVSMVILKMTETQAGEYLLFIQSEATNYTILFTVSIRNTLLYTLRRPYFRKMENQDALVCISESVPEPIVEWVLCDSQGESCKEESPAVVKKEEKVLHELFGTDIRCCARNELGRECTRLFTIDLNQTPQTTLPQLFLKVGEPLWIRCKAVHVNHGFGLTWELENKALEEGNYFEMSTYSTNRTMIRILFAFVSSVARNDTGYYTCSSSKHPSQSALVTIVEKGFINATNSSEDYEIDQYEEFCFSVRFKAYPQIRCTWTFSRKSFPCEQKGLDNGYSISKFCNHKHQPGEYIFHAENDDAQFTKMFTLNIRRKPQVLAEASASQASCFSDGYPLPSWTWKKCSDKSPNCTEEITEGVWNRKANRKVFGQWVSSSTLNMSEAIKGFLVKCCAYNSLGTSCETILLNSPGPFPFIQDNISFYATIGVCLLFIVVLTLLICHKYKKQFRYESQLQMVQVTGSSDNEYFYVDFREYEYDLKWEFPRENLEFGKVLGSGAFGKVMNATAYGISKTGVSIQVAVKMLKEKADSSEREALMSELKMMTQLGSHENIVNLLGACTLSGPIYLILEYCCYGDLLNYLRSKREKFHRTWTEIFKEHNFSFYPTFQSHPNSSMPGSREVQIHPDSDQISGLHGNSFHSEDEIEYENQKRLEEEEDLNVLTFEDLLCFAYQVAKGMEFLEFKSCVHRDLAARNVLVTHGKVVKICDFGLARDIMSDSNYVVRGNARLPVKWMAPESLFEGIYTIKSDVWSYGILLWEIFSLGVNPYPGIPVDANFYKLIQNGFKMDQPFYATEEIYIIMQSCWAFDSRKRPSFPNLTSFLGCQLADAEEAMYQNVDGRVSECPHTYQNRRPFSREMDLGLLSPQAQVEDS
Experimental: (§1) Activity of compounds on FLT3 activating mutations were assessed using Ba/F3 cell lines (mouse pro-B cell line) stably expressing human FLT3-ITD, FLT3-ITD-D835Y or FLT3-ITD-F691L. […] The supernatant collected were concentrated with PEG8000 and used to infect Ba/F3 cells at 1-5 MOI in serum-free media with polybrene. Infected Ba/F3 cells were selected in presence of puromycin, and surviving cells verified by sequencing and/or protein detection assay. Constitutive expression of the activating kinase transforms the Ba/F3 cells into IL-3-independent growth allowing them to be cultured in the absence of IL-3. […] For use in compound testing, cells in exponential growth phase were harvested, counted, and resuspended at the required cell density. Cell viability assays were performed in 96-well assay plates and 90 μL of cell suspension seeded per well. Serial dilutions of the test compounds and assay controls and were freshly prepared for the assay. Nine-point 3× serial dilutions were prepared in 100% DMSO (400× stock) and subsequently diluted in cell culture media to obtain 10× stocks. Ten microliters of the 10× stock serial dilutions were added to the appropriate wells (triplicate wells per condition) in the assay plate. […] Assay plates were incubated for 3 days in at 37° C. in a humidified incubator with 5% CO2.
(§2) Inhibition rate (IR) of the tested compounds was determined by the following formula: IR (%)=(1−(RLU compound−RLU blank)/(RLU control−RLU blank))*100%. The inhibitions of different dose of compound were calculated in Excel file, and the dose responses were analysed using GraphPad Prism to evaluate related parameters, such as Bottom, Top and IC50. For the IC50 analysis by GraphPad Prism, the equation below was used to fit curve: Y=Bottom+(Top−Bottom)/(1+10^((LogIC50−X)*HillSlope))

[2] = target: T2, Ba/F3 cell lines stably expressing human FLT3-ITD-D835Y (Homo sapiens, UniProt P36888, D835Y, cells depend on it, form not given); experiment: FLT3 mutant assay, cell viability, Ba/F3-FLT3-ITD-D835Y; format: cell-based, mouse; conditions: IC50 (3 days), CellTiter-Glo; read-out: Ba/F3-FLT3-ITD-D835Y Relative IC50
T2 construct: Ba/F3-FLT3-ITD-D835Y Relative IC50
T2 sequence (P36888 1-993 D835Y): T1 sequence (P36888 1-993 F691L) with L691F, D835Y
Experimental: as §1, §2

Structure (SMILES): CCc1nc(C(N)=O)c(Nc2cccc(CCNC(=O)[C@H](C)N(C)C(=O)/C=C/CN(C)C)c2)nc1N(C)C(C)C [Compound 204, (S,E)-3-((3-(2-(2-(4-(dimethylamino)-N-methylbut-2-enamido)propanamido)ethyl)phenyl)amino)-6-ethyl-5-(isopropyl(methyl)amino)pyrazine-2-carboxamide]
- GI50 [1]: 1 to 10 nM
- GI50 [2]: 1 to 10 nM

Structure (SMILES): CCc1nc(C(N)=O)c(Nc2cccc(CCNC(=O)[C@H](C)N(C)C(=O)/C=C/CN(C)C)c2)nc1NC(C)C [Compound 205, (S,E)-3-((3-(2-(2-(4-(dimethylamino)-N-methylbut-2-enamido)propanamido)ethyl)phenyl)amino)-6-ethyl-5-(isopropylamino)pyrazine-2-carboxamide]
- GI50 [1]: 1 to 10 nM
- GI50 [2]: 1 to 10 nM

Structure (SMILES): CCc1nc(C(N)=O)c(Nc2cccc(CCNC(=O)CN(C)C(=O)/C=C/CN(C)C)c2)nc1C1CC1 [Compound 219, (E)-5-cyclopropyl-3-((3-(2-(2-(4-(dimethylamino)-N-methylbut-2-enamido)acetamido)ethyl)phenyl)amino)-6-ethylpyrazine-2-carboxamide]
- GI50 [1]: 1 to 10 nM
- GI50 [2]: 10 to 100 nM

Structure (SMILES): Cc1nc(C(N)=O)c(Nc2cccc(CCNC(=O)[C@H](C)N(C)C(=O)/C=C/CN(C)C)c2)nc1N(C)C(C)C [Compound 232, (S, E)-3-((3-(2-(2-(4-(dimethylamino)-N-methylbut-2-enamido)propanamido)ethyl)phenyl)amino)-5-(isopropyl (methyl)amino)-6-methylpyrazine-2-carboxamide]
- GI50 [1]: 1 to 10 nM
- GI50 [2]: 10 to 100 nM

Structure (SMILES): Cc1nc(C(N)=O)c(Nc2cccc(CCNC(=O)CN(C)C(=O)/C=C/CN(C)C)c2)nc1N(C)C(C)C [Compound 250, (E)-3-((3-(2-(2-(4-(dimethylamino)-N-methylbut-2-enamido)acetamido)ethyl)phenyl)amino)-5-(isopropyl(methyl)amino)-6-methylpyrazine-2-carboxamide]
- GI50 [1]: 1 to 10 nM
- GI50 [2]: 10 to 100 nM

Structure (SMILES): CCc1nc(C(N)=O)c(Nc2cccc(CCNC(=O)CN(C)C(=O)/C=C/CN(C)C)c2)nc1N(C)CC [Compound 252, (E)-3-((3-(2-(2-(4-(dimethylamino)-N-methylbut-2-enamido)acetamido)ethyl)phenyl)amino)-6-ethyl-5-(ethyl (methyl)amino) pyrazine-2-carboxamide]
- GI50 [1]: 1 to 10 nM
- GI50 [2]: 1 to 10 nM

Structure (SMILES): CCc1nc(C(N)=O)c(Nc2cccc(CCNC(=O)[C@H](C)N(C)C(=O)/C=C/CNC)c2)nc1N(C)C(C)C [Compound 307, (S,E)-6-ethyl-5-(isopropyl(methyl)amino)-3-((3-(2-(2-(N-methyl-4-(methylamino)but-2-enamido)propanamido)ethyl)phenyl)amino)pyrazine-2-carboxamide]
- GI50 [1]: 10 to 100 nM
- GI50 [2]: 10 to 100 nM

Structure (SMILES): CCc1nc(C(N)=O)c(Nc2ccnc(CCNC(=O)[C@H](C)N(C)C(=O)/C=C/CN(C)C)c2)nc1C1CC1 [Compound 310, (S,E)-5-cyclopropyl-3-((2-(2-(2-(4-(dimethylamino)-N-methylbut-2-enamido)propanamido)ethyl)pyridin-4-yl)amino)-6-ethylpyrazine-2-carboxamide]
- GI50 [1]: 10 to 100 nM
- GI50 [2]: 10 to 100 nM

Structure (SMILES): CCc1nc(C(N)=O)c(Nc2cccc([C@@H](C)CNC(=O)CN(C)C(=O)/C=C/CN(C)C)c2)nc1C1CC1 [Compound 504, (R,E)-5-cyclopropyl-3-((3-(1-(2-(4-(dimethylamino)-N-methylbut-2-enamido)acetamido)propan-2-yl)phenyl)amino)-6-ethylpyrazine-2-carboxamide]
- GI50 [1]: 1 to 10 nM
- GI50 [2]: 10 to 100 nM

Structure (SMILES): CCc1nc(C(N)=O)c(Nc2cccc([C@@H](C)CNC(=O)CN(C)C(=O)/C=C/CN3CCC3)c2)nc1C1CC1 [Compound 506, (R,E)-3-((3-(1-(2-(4-(azetidin-1-yl)-N-methylbut-2-enamido)acetamido)propan-2-yl)phenyl)amino)-5-cyclopropyl-6-ethylpyrazine-2-carboxamide]
- GI50 [1]: 1 to 10 nM
- GI50 [2]: 10 to 100 nM

Structure (SMILES): CCCc1nc(Nc2cccc([C@@H](C)CNC(=O)CN(C)C(=O)/C=C/CN3CCC3)c2)c(C(N)=O)nc1CC [Compound 507, (R,E)-3-((3-(1-(2-(4-(azetidin-1-yl)-N-methylbut-2-enamido)acetamido)propan-2-yl)phenyl)amino)-6-ethyl-5-propylpyrazine-2-carboxamide]
- GI50 [1]: 1 to 10 nM
- GI50 [2]: 10 to 100 nM

Structure (SMILES): CCc1nc(Nc2cccc([C@@H](C)CNC(=O)CN(C)C(=O)/C=C/CN3CCC3)c2)c(C(N)=O)nc1CC [Compound 508, (R, E)-3-((3-(1-(2-(4-(azetidin-1-yl)-N-methylbut-2-enamido)acetamido)propan-2-yl)phenyl)amino)-5,6-diethylpyrazine-2-carboxamide]
- GI50 [1]: 1 to 10 nM
- GI50 [2]: 10 to 100 nM

Structure (SMILES): CCc1nc(C(N)=O)c(Nc2cc(F)cc(CCNC(=O)CN(C)C(=O)/C=C/CN3CCC3)c2)nc1C1CC1 [Compound 516, (E)-3-((3-(2-(2-(4-(azetidin-1-yl)-N-methylbut-2-enamido)acetamido)ethyl)-5-fluorophenyl)amino)-5-cyclopropyl-6-ethylpyrazine-2-carboxamide]
- GI50 [1]: 10 to 100 nM
- GI50 [2]: 10 to 100 nM

Structure (SMILES): CCc1nc(C(N)=O)c(Nc2cccc(CCNC(=O)CN(C)C(=O)/C=C/CN3CCC3)c2)nc1N(C)CC [Compound 516A, (E)-3-((3-(2-(2-(4-(azetidin-1-yl)-N-methylbut-2-enamido)acetamido)ethyl)phenyl)amino)-6-ethyl-5-(ethyl(methyl)amino) pyrazine-2-carboxamide]
- GI50 [1]: 1 to 10 nM
- GI50 [2]: 10 to 100 nM
